Converted amounts (≈) assume the structure as drawn.
Assays:
[1] = test system: Mycobacterium tuberculosis; experiment: Antitubercular activity against Mycobacterium tuberculosis assessed as reduction in microbial growth by broth dilution method; assay type: functional
Mycobacterium marinum = experiment: Antitubercular activity against Mycobacterium marinum assessed as reduction in microbial growth by broth dilution method; assay type: functional
[2] = Intrinsic clearance in mouse liver microsomes; assay type: ADME, Microsome; settings: read-out: CLH
[3] = Solubility of the compound at pH 6.5; assay type: physicochemical; settings: buffer
[4] = Solubility of the compound at pH 2.0; assay type: physicochemical; settings: buffer
[5] = Lipophilicity, log D of the compound at pH 7.4; assay type: physicochemical; settings: buffer
[6] = Half life in mouse liver microsomes; assay type: ADME, Microsome

| Compound | MIC90 [1] [µg/mL] | MIC90 (Mycobacterium marinum) [µg/mL] | also measured |
| --- | --- | --- | --- |
| CC1CCCN(C(=O)CS(=O)(=O)c2nnnn2C)C1 (centres undefined) | 6.25 | 25 |  |
| O=C(CS(=O)(=O)c1nnnn1-c1ccccc1)N1CCCC1 | 20 | > 100 |  |
| CC1CCN(C(=O)CS(=O)(=O)c2nc(-c3ccc(Cl)cc3)n[nH]2)CC1 | > 100 | > 100 |  |
| CC1CCN(C(=O)C[S+]([O-])c2nnnn2-c2ccccc2)CC1 (centres undefined) | 25 | 100 |  |
| CN(C(=O)CS(=O)(=O)c1nc(O)nn1C)c1ccccc1 | > 100 | > 100 |  |
| O=C(CS(=O)(=O)c1nnnn1-c1ccccc1)NC1CCCCC1 | 100 | 100 |  |
| CC1CCN(C(=O)CSc2nnnn2-c2ccccc2)CC1 | > 50 | > 100 |  |
| O=C(CS(=O)(=O)c1nnnn1-c1ccccc1)N1CCCCC1 | 10 | 100 |  |
| Cn1nnnc1S(=O)(=O)CC(=O)N1CCN(c2ccccc2)CC1 | 1.25 | 10 | microsomal CLint [2]: 85 µL/min/mg; solubility [3]: 25 mg/mL (≈ 71.3 mM); solubility [4]: 50 mg/mL (≈ 143 mM); logD [5]: 4.8; half-life [6]: 0.333 h |
| Cn1nnnc1S(=O)(=O)CC(=O)N1CCCC1 | 6.25 | 12.5 |  |
| COc1cccc(-c2n[nH]c(S(=O)(=O)CC(=O)N3CCC(C)CC3)n2)c1 | > 100 | > 100 |  |
| Cn1nnnc1S(=O)(=O)CC(=O)NC1CCCCC1 | 6.25 | 12.5 |  |
| CN(C(=O)C[S+]([O-])c1nnnn1-c1ccccc1)c1ccccc1 (centres undefined) | 50 | 100 |  |
| CCC1CCCCN1C(=O)CS(=O)(=O)c1nnnn1C (centres undefined) | 2.5 | 100 |  |
| Cn1nnnc1SCC(=O)N1CCCCC1 | > 100 | > 100 |  |
| CN(C(=O)CS(=O)(=O)c1nnnn1C)c1ccccc1 | 2.5 | 100 |  |

| Compound | MIC90 [1] [µg/mL] | MIC90 (Mycobacterium marinum) [µg/mL] | also measured |
| --- | --- | --- | --- |
| CN(C(=O)CSc1nnnn1-c1ccccc1)c1ccccc1 | > 100 | > 100 |  |
| CCN(CC)C(=O)CS(=O)(=O)c1nnnn1C | 10 | 100 |  |
| CC1CCN(C(=O)CS(=O)(=O)c2nnnn2-c2ccccc2)CC1 | 12.5 | 100 |  |
| Cn1nnnc1S(=O)(=O)CC(=O)N1CCCCC1 | 1.56 | 12.5 | microsomal CLint [2]: 10 µL/min/mg; solubility [3]: > 100 mg/mL; solubility [4]: > 100 mg/mL; logD [5]: 1.6; half-life [6]: 2.93 h |
| O=C(CS(=O)(=O)c1nnnn1-c1ccccc1)N1CCN(c2ccccc2)CC1 | 10 | 100 |  |
| O=C(CS(=O)(=O)c1nnc2ncccn12)N1CCN(c2ccccc2)CC1 | > 100 | > 100 |  |
| CN(C(=O)CS(=O)(=O)c1nnnn1-c1ccccc1)c1ccccc1 | 10 | 50 |  |
| CCN(CC)C(=O)CS(=O)(=O)c1nnnn1-c1ccccc1 | 20 | > 100 |  |
| CC1CCN(C(=O)CS(=O)(=O)c2nnnn2C)CC1 | 1.56 | 12.5 |  |
| CO[C@H]1/C=C/O[C@@]2(C)Oc3c(C)c(O)c4c(O)c(c(/C=N/N5CCN(C)CC5)c(O)c4c3C2=O)NC(=O)/C(C)=C\C=C\[C@H](C)[C@H](O)[C@@H](C)[C@@H](O)[C@@H](C)[C@H](OC(C)=O)[C@@H]1C [RIFAMPIN] | 0.06 | 0.2 |  |
| Cn1nnnc1SCC(=O)N1CCCC1 | > 100 | > 100 |  |
| CC1CCCCN1C(=O)CS(=O)(=O)c1nnnn1C (centres undefined) | 3.13 | 25 |  |
| Cn1nnnc1S(=O)(=O)CC(=O)N1CCCCCC1 | 1.25 | 100 |  |
| O=C(CSc1nnnn1-c1ccccc1)N1CCCC1 | 50 | 100 |  |
| O=C(CS(=O)(=O)c1nnc2ncccn12)N1CCCCC1 | > 100 | > 100 |  |
| CC1CCCCN1C(=O)CS(=O)(=O)c1nnnn1-c1ccccc1 (centres undefined) | 12.5 | 100 |  |

From ChEMBL document CHEMBL5365404, “Synthesis and biological evaluation of 2-(Tetrazol-5-yl)sulfonylacetamides as inhibitors of Mycobacterium tuberculosis and Mycobacterium marinum” (Bioorg Med Chem Lett, 2023)
